Reference: the supplement of paper PMC11451515

Test system: P12-Ichikawa
Assay: cell viability relative to DMSO control; higher = less cytotoxic
Conditions: 48 h
In short: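 In 1536-well plates, 5 μl of leukemia cells were seeded per well: 500 cells/well for NOMO1 or SEM and 1000 cells/well for P12-Ichikawa. Each line had first been adapted for at least four passages in each medium. Library compounds in DMSO were pin-dosed at 11 threefold concentrations between 47 μM and 0.79 nM, and CellTiter-Glo One luminescence was read after 48 h at 37°C. Viability is a per-plate percentage relative to DMSO wells, with cell-free wells as background.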

[1] = HPLM + 10% dialyzed FBS, 0.000781 µM
[2] = HPLM + 10% dialyzed FBS, 0.00234 µM
[3] = HPLM + 10% dialyzed FBS, 0.00702 µM
[4] = HPLM + 10% dialyzed FBS, 0.0211 µM
[5] = HPLM + 10% dialyzed FBS, 0.0632 µM
[6] = HPLM + 10% dialyzed FBS, 0.19 µM
[7] = HPLM + 10% dialyzed FBS, 0.569 µM
[8] = HPLM + 10% dialyzed FBS, 1.71 µM
[9] = HPLM + 10% dialyzed FBS, 5.12 µM
[10] = HPLM + 10% dialyzed FBS, 15.4 µM
[11] = HPLM + 10% dialyzed FBS, 46.1 µM
[12] = RPMI 5 mM glucose + 10% FBS, 0.000781 µM
[13] = RPMI 5 mM glucose + 10% FBS, 0.00234 µM
[14] = RPMI 5 mM glucose + 10% FBS, 0.00702 µM
[15] = RPMI 5 mM glucose + 10% FBS, 0.0211 µM
[16] = RPMI 5 mM glucose + 10% FBS, 0.0632 µM
[17] = RPMI 5 mM glucose + 10% FBS, 0.19 µM
[18] = RPMI 5 mM glucose + 10% FBS, 0.569 µM
[19] = RPMI 5 mM glucose + 10% FBS, 1.71 µM
[20] = RPMI 5 mM glucose + 10% FBS, 5.12 µM
[21] = RPMI 5 mM glucose + 10% FBS, 15.4 µM
[22] = RPMI 5 mM glucose + 10% FBS, 46.1 µM
[23] = RPMI 5 mM glucose + 10% dialyzed FBS, 0.000781 µM
[24] = RPMI 5 mM glucose + 10% dialyzed FBS, 0.00234 µM
[25] = RPMI 5 mM glucose + 10% dialyzed FBS, 0.00702 µM
[26] = RPMI 5 mM glucose + 10% dialyzed FBS, 0.0211 µM
[27] = RPMI 5 mM glucose + 10% dialyzed FBS, 0.0632 µM
[28] = RPMI 5 mM glucose + 10% dialyzed FBS, 0.19 µM
[29] = RPMI 5 mM glucose + 10% dialyzed FBS, 0.569 µM
[30] = RPMI 5 mM glucose + 10% dialyzed FBS, 1.71 µM
[31] = RPMI 5 mM glucose + 10% dialyzed FBS, 5.12 µM
[32] = RPMI 5 mM glucose + 10% dialyzed FBS, 15.4 µM
[33] = RPMI 5 mM glucose + 10% dialyzed FBS, 46.1 µM

| Structure (SMILES) | cell viability [1] [%] | cell viability [2] [%] | cell viability [3] [%] | cell viability [4] [%] | cell viability [5] [%] | cell viability [6] [%] | cell viability [7] [%] | cell viability [8] [%] | cell viability [9] [%] | cell viability [10] [%] | cell viability [11] [%] | cell viability [12] [%] | cell viability [13] [%] | cell viability [14] [%] | cell viability [15] [%] | cell viability [16] [%] | cell viability [17] [%] | cell viability [18] [%] | cell viability [19] [%] | cell viability [20] [%] | cell viability [21] [%] | cell viability [22] [%] | cell viability [23] [%] | cell viability [24] [%] | cell viability [25] [%] | cell viability [26] [%] | cell viability [27] [%] | cell viability [28] [%] | cell viability [29] [%] | cell viability [30] [%] | cell viability [31] [%] | cell viability [32] [%] | cell viability [33] [%] |
| --- | --- | --- | --- | --- | --- | --- | --- | --- | --- | --- | --- | --- | --- | --- | --- | --- | --- | --- | --- | --- | --- | --- | --- | --- | --- | --- | --- | --- | --- | --- | --- | --- | --- |
| Cc1c(C(=O)c2cccc3ccccc23)c2cccc3c2n1[C@H](CN1CCOCC1)CO3 | 98.5 | 93.4 | 93.5 | 97 | 89.5 | 90.2 | 91.4 | 91.9 | 80.8 | 82 | 26.2 | 83.1 | 76.7 | 81.9 | 78.4 | 87.8 | 77.5 | 80.1 | 84.5 | 76.3 | 74.7 | 12.9 | 86 | 92.5 | 85.4 | 82.6 | 94.2 | 86.9 | 90.2 | 84.6 | 81 | 78.6 | 28.5 |
| CC(C)(Sc1ccc(CCN(CCCCC2CCCCC2)C(=O)NC2CCCCC2)cc1)C(=O)O | 114 | 115 | 116 | 115 | 110 | 109 | 111 | 105 | 107 | 101 | 83.4 | 111 | 112 | 106 | 110 | 109 | 111 | 115 | 102 | 107 | 89 | 86.2 | 113 | 110 | 114 | 122 | 116 | 113 | 104 | 111 | 104 | 102 | 73.5 |
| Nc1nc(NCCNc2ncc(-n3ccnc3)c(-c3ccc(Cl)cc3Cl)n2)ccc1[N+](=O)[O-] | 114 | 119 | 125 | 123 | 126 | 132 | 133 | 131 | 134 | 130 | 125 | – | – | – | – | – | – | – | – | – | – | – | – | – | – | – | – | – | – | – | – | – | – |
| CCOC(=O)N[C@@H]1CC[C@@H]2[C@@H](C1)C[C@H]1C(=O)O[C@H](C)[C@H]1[C@H]2/C=C/c1ccc(-c2cccc(F)c2)cn1 | 113 | 114 | 115 | 114 | 114 | 117 | 113 | 120 | 120 | 115 | 98.5 | – | – | – | – | – | – | – | – | – | – | – | 114 | 116 | 124 | 122 | 123 | 120 | 123 | 122 | 120 | 119 | 68.4 |
| C1COC(NC(C2CC2)C2CC2)=N1 | 82.7 | 92 | 84.2 | 94.6 | 88.9 | 90.7 | 95.5 | 85.4 | 88.9 | 100 | 77.1 | 89.2 | 103 | 106 | 98.4 | 103 | 97.6 | 93.8 | 91.3 | 94.6 | 95.5 | 77.7 | 79.5 | 80.5 | 87.1 | 91.6 | 87.2 | 82.4 | 88.6 | 83.4 | 91.6 | 89.3 | 58.8 |
| Nc1nc(N)c(N=O)c(OCC2CCCCC2)n1 | 89.4 | 90.3 | 88.9 | 90.6 | 97.6 | 92.2 | 88.3 | 81.1 | 75.6 | 60.6 | 40.1 | 86 | 87.3 | 86.9 | 93 | 98.2 | 95.3 | 84.6 | 78.7 | 53.8 | 45 | 34.7 | 84.8 | 89.2 | 85 | 86.9 | 100 | 88.5 | 91.3 | 72.3 | 59 | 48.9 | 35.9 |
| CN1CCC(CC1)=C2C3=C(C=CC=C3)\C=C/C4=C2C=CC=C4 | 106 | 125 | 117 | 130 | 122 | 122 | 126 | 133 | 128 | 118 | 108 | – | – | – | – | – | – | – | – | – | – | – | – | – | – | – | – | – | – | – | – | – | – |
| Oc1ccc2ccccc2c1SSc1c(O)ccc2ccccc12 | 98.4 | 100 | 105 | 108 | 106 | 109 | 110 | 109 | 109 | 105 | 94.2 | 105 | 114 | 106 | 107 | 101 | 109 | 116 | 109 | 106 | 101 | 62.2 | 88.3 | 98.9 | 95.5 | 109 | 99.2 | 104 | 105 | 103 | 98.3 | 94.3 | 52.3 |
| CC(C)c1c(C(=O)Nc2ccccc2)c(-c2ccccc2)c(-c2ccc(F)cc2)n1CC[C@@H](O)C[C@@H](O)CC(=O)[O-] | 101 | 102 | 106 | 99.4 | 98.6 | 97.4 | 106 | 91.2 | 85.7 | 85.2 | 47.2 | 97.5 | 92.6 | 99.6 | 94.7 | 97.1 | 87.9 | 93.3 | 87.6 | 68.4 | 56.3 | 23.2 | 97.4 | 91.9 | 91.2 | 92 | 95.7 | 90.5 | 89.5 | 83.8 | 85.1 | 67.6 | 36.3 |
| Cc1nc(N)ncc1-c1nc(N2CCOCC2)c2sc(C(C)(C)O)cc2n1 | 125 | 122 | 119 | 113 | 83 | 10.9 | 7.79 | 5.43 | 4.61 | 4.97 | 4.1 | 116 | 122 | 114 | 120 | 116 | 121 | 18.5 | 7.92 | 6.16 | 5.72 | 5.39 | 124 | 118 | 125 | 120 | 122 | 118 | 13.2 | 8.68 | 7.11 | 6.92 | 5.85 |
| CC[C@H]1CN2CCc3cc(OC)c(OC)cc3[C@@H]2C[C@@H]1C[C@H]1NCCc2cc(OC)c(OC)cc21 | 111 | 116 | 108 | 103 | 92.5 | 77.1 | 39.7 | 25.7 | 28.8 | 21.1 | 16.1 | 96.8 | 107 | 104 | 102 | 93.3 | 69.4 | 28.9 | 16.6 | 14.8 | 13.4 | 11.1 | 103 | 113 | 109 | 108 | 103 | 80.3 | 56.5 | 29.6 | 19.4 | 14.1 | 13.6 |
| C[N]1N=CC=C1C/2=C(\C)N(C(=O)C(=C2)/C(=O)NCC3=NC=C(C=C3)[S+](C)([O-])=O)C4=CC=CC(=C4)C(F)(F)F | 107 | 104 | 106 | 104 | 107 | 107 | 105 | 101 | 98.3 | 96.8 | 88.5 | 105 | 102 | 109 | 109 | 112 | 93 | 106 | 97.3 | 92 | 91.1 | 99.2 | 108 | 105 | 112 | 105 | 106 | 95 | 110 | 103 | 102 | 91.7 | 97.5 |
| Nc1ccc([S+](=O)([O-])Nc2ncccn2)cc1 | 118 | 120 | 124 | 95.8 | 128 | 131 | 126 | 125 | 125 | 119 | 126 | 115 | 114 | 122 | 74.2 | 133 | 118 | 127 | 126 | 132 | 133 | 106 | – | – | – | – | – | – | – | – | – | – | – |
| COc1cc(OC)c(C(=O)CCCN2CCCC2)c(OC)c1 | 116 | 120 | 128 | 119 | 120 | 116 | 112 | 113 | 118 | 117 | 116 | 119 | 123 | 132 | 130 | 125 | 124 | 122 | 109 | 112 | 111 | 111 | – | – | – | – | – | – | – | – | – | – | – |
| N#Cc1ccnc(N2C(=O)CC[C@H]2C(=O)N(c2cncc(F)c2)[C@H](C(=O)NC2CC(F)(F)C2)c2ccccc2Cl)c1 | 91.1 | 95.2 | 93.7 | 95.4 | 94.9 | 97 | 74.8 | 48.3 | 10.1 | 10.1 | 15.5 | 88 | 90.2 | 95.4 | 93.1 | 90.5 | 90.5 | 80.5 | 71.5 | 25.4 | 16.2 | 7.62 | 95.5 | 89.9 | 88.5 | 96.7 | 97.5 | 95.6 | 85 | 83.7 | 35.6 | 26.2 | 18.8 |
| CC(C)(O)C(=O)Nc1ccc([N+](=O)[O-])c(C(F)(F)F)c1 | 103 | 109 | 124 | 119 | 118 | 123 | 119 | 119 | 85.6 | 24 | 11.6 | 95.7 | 108 | 115 | 115 | 122 | 113 | 119 | 125 | 87 | 29.5 | 13.8 | 94.1 | 127 | 116 | 121 | 125 | 130 | 139 | 136 | 127 | 74.8 | 18.1 |
